Test results from patent US20090162425A1, “METHODS AND COMPOSITIONS FOR INHIBITING UNDESIRABLE CELLULAR PROLIFERATION BY TARGETED LIPOSOME DELIVERY OF ACTIVE AGENTS” (University of Tennessee Research Foundation, priority 2007, published 2009).

Key:
avidin = avidin (Gallus gallus, UniProt P02701); details: avidin-biotin interaction; cited from earlier work
[1] = system: C6 GFP intracranial glioma tumors; details: 2 mg/Kg paclitaxel administered systemically, intracranial model
Description: The animals were monitored visually on a daily basis and weights were measured on every 3rd day until they lost 10% of their body weight.
After 5 days of tumor cell inoculation, animals were assigned randomly to 3 groups (n=3-4 per group). […] The animals were then sacrificed on the 9th day of treatment and the brains were isolated.
Tumor areas were measured METAMORPH® software after taking optical images with a CCD camera with GFP filter.

[2] = system: C6 GFP flank glioma tumors; details: 2 mg/Kg paclitaxel administered systemically, flank model
Description: Tumor growth was measured on every 3rd day with a vernier caliper, and tumor volume was measured using the formula
Injections were made using the retro orbital route of administration. For monitoring changes in tumor volume, tumor growth was measured every 3rd day with a vernier caliper, and tumor volume was measured as described in previous section.
The tumor growth delay was defined as the time required for a treated tumor to reach a specific volume (130 mm^3) minus the time for the untreated tumor to reach that same volume.

[3] = in vivo; cited from earlier work
[4] = cited from earlier work

Sequence of avidin (P02701 25-152): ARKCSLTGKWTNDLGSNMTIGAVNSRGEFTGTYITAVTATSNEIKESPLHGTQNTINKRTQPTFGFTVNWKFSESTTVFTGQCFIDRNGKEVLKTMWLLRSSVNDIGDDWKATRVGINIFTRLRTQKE

Row | Structure (SMILES) | dissociation half-life (avidin) | gross deleterious effects (clinical monitoring and daily weights) [1] | gross deleterious effects (clinical monitoring and daily weights) [2] | drug bound to plasma proteins [3] | terminal half-life (mean) [3] [h] | terminal half-life (range) [3] [h] | log P [4]
1 | O=C(O)CCCC[C@@H]1SC[C@@H]2NC(=O)N[C@@H]21 [biotin] | about 89 days | – | – | – | – | – | –
2 | CC(=O)O[C@H]1C(=O)[C@@]2(C)[C@H]([C@H](OC(=O)c3ccccc3)[C@]3(O)C[C@H](OC(=O)[C@H](O)[C@@H](NC(=O)c4ccccc4)c4ccccc4)C(C)=C1C3(C)C)[C@]1(OC(C)=O)CO[C@@H]1C[C@@H]2O [paclitaxel] | – | no gross deleterious effects | no gross deleterious effects | More than 90% | 5 | 1.3 to 8.6 | 3.96
